The Ki is a dissociation constant, usually derived from enzyme kinetics or from competition with a known ligand. By IC50 is commonly meant the point on the concentration scale where inhibition reaches its midpoint. The low end stands for higher potency, the high end for lower potency.

The structures appear in SMILES notation. Structures can show the parent of a compound that is named as a salt. Some results are limits rather than exact numbers.

In test [1] the target is T1, fibroblast activation protein (FAP; rhFAP, SLIN-tagged hFAP) (Homo sapiens, UniProt Q12884).
T1 sequence (Q12884 35-760): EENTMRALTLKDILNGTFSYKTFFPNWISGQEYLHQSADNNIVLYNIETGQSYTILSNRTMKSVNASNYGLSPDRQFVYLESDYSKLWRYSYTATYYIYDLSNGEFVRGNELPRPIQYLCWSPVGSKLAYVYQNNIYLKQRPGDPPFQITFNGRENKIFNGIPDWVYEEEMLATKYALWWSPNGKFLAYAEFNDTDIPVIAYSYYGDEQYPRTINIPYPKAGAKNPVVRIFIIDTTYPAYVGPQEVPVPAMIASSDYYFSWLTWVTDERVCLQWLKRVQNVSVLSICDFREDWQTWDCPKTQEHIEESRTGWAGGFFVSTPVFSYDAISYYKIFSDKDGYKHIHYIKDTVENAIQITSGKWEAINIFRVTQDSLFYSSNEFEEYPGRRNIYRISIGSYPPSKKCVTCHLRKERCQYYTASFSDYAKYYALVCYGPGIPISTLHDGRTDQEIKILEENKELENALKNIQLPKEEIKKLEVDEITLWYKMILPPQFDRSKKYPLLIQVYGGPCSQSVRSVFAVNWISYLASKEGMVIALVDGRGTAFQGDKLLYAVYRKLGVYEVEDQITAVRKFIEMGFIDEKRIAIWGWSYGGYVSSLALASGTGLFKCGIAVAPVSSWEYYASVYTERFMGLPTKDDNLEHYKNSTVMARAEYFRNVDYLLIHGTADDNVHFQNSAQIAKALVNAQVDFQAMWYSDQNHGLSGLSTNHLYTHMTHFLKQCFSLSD
The test can be described thus: biochemical. The class given is binding.

The target in test [2] is T1, fibroblast activation protein (FAP; rhFAP, SLIN-tagged hFAP). To be noted: 2 µM; inhibitor.
For test [3] the target is unchanged. The test is described as follows: biochemical.
Test [4] has the same target. The test is described as follows: fluorogenic AMC substrate activity assay. Type of test: biochemical.
Test [5] has the same target. The test is described as follows: DIANA competition with DNA-linked probe, qPCR. The class given is binding.

With `C=CC1=C(C)c2cc3[nH]c(cc4nc(cc5[nH]c(cc1n2)c(C)c5CCC(=O)O)C(CCC(=O)O)=C4C)c(C)c3C=C` [protoporphyrin IX], the Ki in test [1] is 0.8 µM. Moreover, in test [2], the “Relative inhibition (%), activity assay” value came out at 46%.
Turning to `C=CC1=C(C)C2=Cc3c(C=C)c(C)c4[n]3[Fe]([Cl])[n]3c(c(C)c(CCC(=O)O)c3=CC3=NC(=C4)C(C)=C3CCC(=O)O)=CC1=N2` [hemin], the inhibitory constant (Ki) in test [1] stood at 0.6 µM.
In test [1], `CC(C)(C)C(=O)OCOC(=O)[C@@H]1N2C(=O)[C@@H](N=CN3CCCCCC3)[C@H]2SC1(C)C` [pivmecillinam] returned an inhibition constant (Ki) of 2.2 µM. For the same compound, in test [2], the “Relative inhibition (%), activity assay” value is given as 45%.
With `CN1CCN(c2ccc(Nc3ncc4cc5n(c4n3)C3(CCCCC3)CNC5=O)nc2)CC1` [Trilaciclib (hydrochloride)], in test [3], the Ki was 5.9 µM. For the same compound, in test [2], the “Relative inhibition (%), activity assay” value is reported as 19%.
In test [3], `Cc1ccc(C(=O)Nc2ccc(S(=O)(=O)O)c3cc(S(=O)(=O)O)cc(S(=O)(=O)O)c23)cc1NC(=O)c1cccc(NC(=O)Nc2cccc(C(=O)Nc3cc(C(=O)Nc4ccc(S(=O)(=O)O)c5cc(S(=O)(=O)O)cc(S(=O)(=O)O)c45)ccc3C)c2)c1` [Suramin (sodium salt)] returned a Ki of 9.1 µM. Moreover, in test [2], the “Relative inhibition (%), activity assay” value came to 12%.
As to `O=C1OC2(c3ccc(O)cc3Oc3cc(O)ccc32)c2ccccc21` [Fluorescein (sodium)], the 50% inhibitory concentration (IC50) in test [4] was above 20 µM.
`Cc1ccc(C)c(CNC(=O)C(=O)[C@@H]2CCCN2C(=O)CNC(=O)c2ccnc3ccccc23)c1` [6f]: the Ki in test [5] was 0.0007 ± 0.0001 µM.
On to `Cc1cc(-c2ccc(/N=N/c3ccc4c(S(=O)(=O)O)cc(S(=O)(=O)O)c(N)c4c3O)c(C)c2)ccc1/N=N/c1ccc2c(S(=O)(=O)O)cc(S(=O)(=O)O)c(N)c2c1O` [Evans Blue], for which the affinity in test [3] corresponds to a Ki of 5.7 µM. Also, the “Relative inhibition (%), activity assay” value in test [2] is 21%.
For `C[C@@H](O)[C@H]1C(=O)N2C(C(=O)OCOC(=O)C(C)(C)C)=C(SC3CN(C4=NCCS4)C3)[C@H](C)[C@H]12` [Tebipenem pivoxil], the inhibition constant (Ki) in test [1] came to 0.64 µM.
`COc1cc2/c(=N/c3ccc(Br)cc3F)nc[nH]c2cc1OCC1CCN(C)CC1` [Vandetanib] showed an inhibition constant (Ki) in test [3] of 9.4 µM. For the same compound, the “Relative inhibition (%), activity assay” value in test [2] came to 29%.
On to `CCN1CCN(C(=O)N[C@@H](C(=O)N[C@@H]2C(=O)N3C(C(=O)O)=C(CSc4nnnn4C)CS[C@H]23)c2ccc(O)cc2)C(=O)C1=O` [Cefoperazone (sodium salt)], for which affinity in test [3] was put at a Ki of 3.9 µM. Further, the “Relative inhibition (%), activity assay” value in test [2] is 25%.
Regarding `CNC(=O)c1ccc(-c2cnc3ncc(Cc4ccc5ncccc5c4)n3n2)cc1F` [Capmatinib], the inhibition constant (Ki) in test [3] worked out at 3.3 µM. Also, the “Relative inhibition (%), activity assay” value in test [2] is recorded as 27%.
For the compound `Cc1cnc(C(=O)N[C@H]2CCCCC/C=C\[C@@H]3C[C@@]3(C(=O)NS(=O)(=O)C3CC3)NC(=O)[C@@H]3C[C@@H](Oc4nc5ccccc5c5ccccc45)CN3C2=O)cn1` [Paritaprevir], the affinity in test [3], expressed as Ki, was 9.7 µM. In addition, the “Relative inhibition (%), activity assay” value in test [2] is on record as 35%.
In test [1], `O=C1OC2(c3cc(I)c(O)c(I)c3Oc3c2cc(I)c(O)c3I)c2c(Cl)c(Cl)c(Cl)c(Cl)c21` [rose bengal] displayed an inhibition constant Ki of 0.1 µM. In addition, the “Relative inhibition (%), activity assay” value in test [2] is 9%.
The compound `CCCC(=O)OCOC(=O)C1=C(C)NC(C)=C(C(=O)OC)C1c1cccc(Cl)c1Cl` (centres unmarked) [Clevidipine] returned an inhibitory constant (Ki) in test [3] of 1.7 µM. In addition, the “Relative inhibition (%), activity assay” value in test [2] amounted to 35%.
The like results for `COc1ccc2nc3cc(Cl)ccc3c(Nc3cc(CN4CCCC4)c(O)c(CN4CCCC4)c3)c2n1` [Pyronaridine (tetraphosphate)] were, in that order, 7.1 µM and 19%.
For `C=Cc1c(C)c2cc3nc(c(CC(=O)N[C@@H](CC(=O)O)C(=O)O)c4[nH]c(cc5nc(cc1[nH]2)C(C)=C5CC)c(C)c4C(=O)O)[C@@H](CCC(=O)O)[C@@H]3C` [Talaporfin (sodium)], affinity in test [3] was put at a Ki of 3 µM. Also, the “Relative inhibition (%), activity assay” value in test [2] is reported as 12%.
`C[n+]1cc2c3c(ccc2c2ccc4cc5c(cc4c21)OCO5)OCO3` [Sanguinarine (chloride)] registered a Ki in test [3] of 7.2 µM. Further, the “Relative inhibition (%), activity assay” value in test [2] came out at 13%.

The values are drawn from paper doi:10.1101/2024.06.25.600598v1 (biorxiv, 2024).
